Results as given in patent US8637557B2, “Aminothiazole derivative” (Taisho Pharmaceutical Co., Ltd, priority 2009, dated 2014).

Target: T1, human PI 3-kinase p120γ (Homo sapiens, UniProt P48736)
T1 construct: purchased Millipore Corporation
Assay: PI 3-kinase p120γ enzyme activity inhibition test
Format: biochemical
Conditions: ATP 10.0 μM, PIP2-PS 5.0 μM, 30° C., 2 hours; read-out: PI3Kγ (IC50 value class)
Experimental: Using human PI 3-kinase p120γ (manufactured by Millipore Corporation) and a mixed micellized product (hereinafter abbreviated as PIP2-PS) of the substrate thereof, L-a-Phosphatidyl-D-myo-inositol-4,5-bisphosphate (product of Calbiochem, hereinafter abbreviated as PIP2), and L-a-Phosphatidyl-L-Serine (manufactured by Sigma, hereinafter abbreviated as PS), the compound of the present invention was examined for the inhibitory action on PI3 Kinase p120γ enzyme activity (Km=8.9 μM for ATP, Km=4.0 μM for PIP2-PS).
PIP2-PS was prepared by mixing 500 μM of PIP2 and 2.5 nM of PS and sonicating the mixture for 40 minutes while ice cooling to cause micellization. ATP (final concentration 10.0 μM), [γ-^33P] ATP (final concentration 10 μCi/ml), PIP2-PS (final concentration 5.0 μM) and DMSO solutions of the test compound in different concentrations (compound final concentration 1.0×10^−5 to 2.4×10^−12 M, DMSO final concentration 0.1%) were added to PI 3-kinase p120γ, stirred and reacted at 30° C. for 2 hours. Using Phospholipid-Coated FlashPlate Microplates, 96-Well and Phospholipid FlashPlate Coating Buffer (both manufactured by PerkinElmer Co., Ltd.), PIP2-PS and phosphorylated PIP2-PS were allowed to be adsorbed to the well wall of the plate and collected. The well was washed twice with PBS (Phosphate-Buffered Saline) and dried. The radioactivity was measured using Top Count NXT (manufactured by PerkinElmer Co., Ltd.), whereby the phosphorylated amount (a) of PIP2-PS at the time of compound addition was calculated.
The same procedure was carried out in the absence of the test compound and the phosphorylated amount (b) of PIP2-PS was calculated. Further, the same procedure was carried out in the absence of both of the substrate and the test compound, and the PIP2-PS phosphorylated amount (c) of the background was calculated.
The PI3 Kinase p120γ enzyme activity suppression rate of the compound was calculated by the following formula. Suppression rate (%)=[1−(a−c)/(b−c)]×100
More specifically, using the suppression rate by the test compound of different concentrations, the IC50 value was calculated according to the dose-dependent inhibition curve analyzed by a data analysis software Origin (Lightstone Corp.) and used as the inhibitory activity index.

T1 sequence (P48736 whole entry): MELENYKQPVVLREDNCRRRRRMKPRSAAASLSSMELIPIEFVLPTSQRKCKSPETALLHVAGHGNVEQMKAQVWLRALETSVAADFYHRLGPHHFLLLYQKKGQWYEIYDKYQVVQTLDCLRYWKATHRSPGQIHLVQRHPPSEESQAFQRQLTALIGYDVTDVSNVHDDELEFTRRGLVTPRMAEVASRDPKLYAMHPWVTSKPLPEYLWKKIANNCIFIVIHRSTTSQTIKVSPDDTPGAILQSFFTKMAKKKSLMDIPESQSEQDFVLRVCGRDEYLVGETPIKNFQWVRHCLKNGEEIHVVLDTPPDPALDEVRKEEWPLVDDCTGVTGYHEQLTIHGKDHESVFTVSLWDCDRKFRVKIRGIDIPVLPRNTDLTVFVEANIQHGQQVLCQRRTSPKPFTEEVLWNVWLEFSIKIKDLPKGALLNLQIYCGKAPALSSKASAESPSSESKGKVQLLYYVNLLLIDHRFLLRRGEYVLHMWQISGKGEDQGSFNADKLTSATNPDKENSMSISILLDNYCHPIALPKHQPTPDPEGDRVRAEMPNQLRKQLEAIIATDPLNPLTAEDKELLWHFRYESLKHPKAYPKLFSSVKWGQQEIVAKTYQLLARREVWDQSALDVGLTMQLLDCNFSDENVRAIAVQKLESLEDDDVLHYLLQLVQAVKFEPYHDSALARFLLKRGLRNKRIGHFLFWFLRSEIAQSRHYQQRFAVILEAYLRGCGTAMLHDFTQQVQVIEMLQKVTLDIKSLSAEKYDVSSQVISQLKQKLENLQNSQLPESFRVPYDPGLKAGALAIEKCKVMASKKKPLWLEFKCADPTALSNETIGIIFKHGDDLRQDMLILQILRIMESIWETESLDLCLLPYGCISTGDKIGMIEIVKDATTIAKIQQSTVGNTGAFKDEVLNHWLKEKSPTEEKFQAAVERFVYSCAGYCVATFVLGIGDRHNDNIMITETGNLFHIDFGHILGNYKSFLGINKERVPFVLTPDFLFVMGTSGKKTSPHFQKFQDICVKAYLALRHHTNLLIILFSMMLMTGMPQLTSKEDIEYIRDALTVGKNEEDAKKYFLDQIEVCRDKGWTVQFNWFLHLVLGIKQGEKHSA

IC50	SMILES
< 0.1 µM	Cc1nc(NC(=O)NCCC(=O)NC(C)(CO)CO)sc1-c1nc(CC(F)(F)F)no1 [Example 164]
< 0.1 µM	Cc1nc(N)sc1-c1nc(CC(C)(C)CO)no1 [Example 156]
< 0.1 µM	Cc1nc(NC(=O)NCCCN2CCOCC2)sc1-c1nc(-c2cccnc2)no1 [Example 142]
< 0.1 µM	Cc1nc(NC(=O)NCCC(=O)N2CCC(O)CC2)sc1-c1nc(CC(F)(F)F)no1 [Example 166]
< 0.1 µM	CCn1cnc(CCNC(=O)Nc2nc(C)c(-c3nc(-c4cccnc4)no3)s2)c1 [Example 172]
< 0.1 µM	CCOC(=O)CCCC(=O)Nc1nc(C)c(-c2nc(-c3cccnc3)no2)s1 [Example 118]
0.1 to 0.5 µM	Cc1nc(NC(=O)C(C)C)sc1-c1nc(-c2cccnc2)no1 [Example 115, 2-Methyl-N-{4-methyl-5-[3-(pyridin-3-yl)-1,2,4-oxadiazol-5-yl]-1,3-thiazol-2-yl}propanamide]
0.1 to 0.5 µM	Cc1nc(NC(=O)CCNC(=O)OC(C)(C)C)sc1-c1nc(CC(C)(C)CO)no1 [Example 163]
0.5 to 10 µM	CC(=O)Nc1nc(C)c(-c2nc(CCN3CCCC3=O)no2)s1 [Example 89]
0.5 to 10 µM	CC(=O)Nc1nc(C)c(-c2nc(Cn3cccn3)no2)s1 [Example 99]
< 0.1 µM	Cc1nc(NC(=O)NCCN2CCOCC2)sc1-c1nc(-c2cccnc2)no1 [Example 121]
< 0.1 µM	Cc1nc(NC(=O)NCCCOC(C)(C)C)sc1-c1nc(CC(C)(C)CO)no1 [Example 160]
< 0.1 µM	CC(=O)Nc1nc(C)c(-c2nc(/C=C(\C)CO)no2)s1 [Example 98]
< 0.1 µM	COCCc1noc(-c2sc(NC(=O)NCCC(=O)OC(C)(C)C)nc2C)n1 [Example 154]
< 0.1 µM	Cc1nc(NC(=O)NCCOC(=O)C(C)(C)C)sc1-c1nc(-c2cccnc2)no1 [Example 135]
< 0.1 µM	Cc1nc(NC(=O)NCCC(=O)OC(C)(C)C)sc1-c1nc(CC(F)(F)F)no1 [Example 147]
< 0.1 µM	Cc1nc(NC(=O)NCCc2ccccn2)sc1-c1nc(-c2cccnc2)no1 [Example 171]
< 0.1 µM	CC(=O)Nc1nc(C)c(-c2nc(CC(C)(C)C(N)=O)no2)s1 [Example 111]
< 0.1 µM	Cc1nc(NC(=O)NCCO)sc1-c1nc(-c2cccnc2)no1 [Example 120]

IC50	SMILES
0.1 to 0.5 µM	CC(=O)Nc1nc(C)c(-c2nc(CC(C)(C)S(N)(=O)=O)no2)s1 [Example 107]
< 0.1 µM	Cc1nc(NC(=O)NCCC(=O)N2CCOCC2)sc1-c1nc(-c2cccnc2)no1 [Example 145]
< 0.1 µM	Cc1nc(NC(=O)NCCC(=O)N2CCNCC2)sc1-c1nc(CC(F)(F)F)no1 [Example 169]
< 0.1 µM	CCOC(=O)Nc1nc(C)c(-c2nc(CC(C)(C)CO)no2)s1 [Example 158]
< 0.1 µM	Cc1nc(NC(=O)NCCNC(=O)OC(C)(C)C)sc1-c1nc(-c2cccnc2)no1 [Example 134]
0.1 to 0.5 µM	Cc1nc(NC(=O)NCCC(=O)N2CCN(C(=O)OC(C)(C)C)CC2)sc1-c1nc(CC(F)(F)F)no1 [Example 168]
< 0.1 µM	COCCNC(=O)CCNC(=O)Nc1nc(C)c(-c2nc(CC(F)(F)F)no2)s1 [Example 167]
< 0.1 µM	Cc1nc(NC(=O)NCC(=O)OC(C)(C)C)sc1-c1nc(-c2cccnc2)no1 [Example 126]
< 0.1 µM	Cc1nc(N)sc1-c1nc(C(C)(C)C)no1 [Example 114]
< 0.1 µM	COCCNC(=O)Nc1nc(C)c(-c2nc(-c3cccnc3)no2)s1 [Example 122]
< 0.1 µM	Cc1nc(NC(=O)NCCCN(C)C)sc1-c1nc(-c2cccnc2)no1 [Example 127]
< 0.1 µM	Cc1nc(NC(=O)NCCC(=O)O)sc1-c1nc(-c2cccnc2)no1 [Example 136]
< 0.1 µM	Cc1nc(NC(=O)NCCC(=O)NC(C)(C)C)sc1-c1nc(-c2cccnc2)no1 [Example 132]
0.1 to 0.5 µM	CC(=O)Nc1nc(C)c(-c2nc(CC(C)(C)S(=O)(=O)NC(C)(C)C)no2)s1 [Example 94]
< 0.1 µM	CC(=O)Nc1nc(C)c(-c2nc(CC(C)(C)C(=O)O)no2)s1 [Example 108]
< 0.1 µM	COCC(=O)Nc1nc(C)c(-c2nc(-c3cccnc3)no2)s1 [Example 116]
< 0.1 µM	Cc1nc(NC(=O)NCCC(=O)OC(C)(C)C)sc1-c1nc(C2CCCCC2)no1 [Example 153]
0.1 to 0.5 µM	CC(=O)Nc1nc(C)c(-c2nc(C(=O)N3CC(O)C3)no2)s1 [Example 90]
< 0.1 µM	Cc1nc(NC(=O)NCCNC(=O)C(C)(C)C)sc1-c1nc(-c2cccnc2)no1 [Example 139]

Further lines, the compound ahead of its results:

SMILES	IC50
CC(=O)Nc1nc(C)c(-c2nc(CC(C)(C)COS(C)(=O)=O)no2)s1 [Example 76]	0.1 to 0.5 µM
CC(=O)Nc1nc(C)c(-c2nc(-c3cccnc3)no2)s1 [Example 1, N-{4-methyl-5-[3-(pyridin-3-yl)-1,2,4-oxadiazol-5-yl]-1,3-thiazol-2-yl}acetamide]	< 0.1 µM
CC(=O)Nc1nc(C)c(-c2nc(CCCCO)no2)s1 [Example 61]	0.1 to 0.5 µM
CC(=O)Nc1nc(C)c(-c2nc(-c3ccccc3CO)no2)s1 [Example 29]	< 0.1 µM
CC(=O)CCc1noc(-c2sc(NC(C)=O)nc2C)n1 [Example 66]	0.1 to 0.5 µM
CC(=O)Nc1nc(C)c(-c2nc(C(C)(C)CO)no2)s1 [Example 65]	< 0.1 µM
CC(=O)Nc1nc(C)c(-c2nc(CC(C)(C)CO)no2)s1 [Example 31, N-{5-[3-(3-hydroxy-2,2-dimethylpropyl)-1,2,4-oxadiazol-5-yl]-4-methyl-1,3-thiazol-2-yl}acetamide]	< 0.1 µM
CC(=O)Nc1nc(C)c(-c2nc(C(C)(C)O)no2)s1 [Example 64]	< 0.1 µM
CC(=O)Nc1nc(C)c(-c2nc(CC(C)(C)CNS(C)(=O)=O)no2)s1 [Example 44]	< 0.1 µM
CC(=O)Nc1nc(C)c(-c2nc(C(C)NC(C)=O)no2)s1 (centres unmarked) [Example 77]	0.5 to 10 µM
CC(=O)Nc1nc(C)c(-c2nc(-c3cccc(CO)c3)no2)s1 [Example 21]	< 0.1 µM
CC(=O)Nc1nc(C)c(-c2nc(Cc3cccnc3)no2)s1 [Example 8]	0.5 to 10 µM
CC(=O)Nc1nc(C)c(-c2nc(CC(F)(F)F)no2)s1 [Example 19]	< 0.1 µM
CC(=O)Nc1nc(C)c(-c2nc(-c3cncc(C)c3)no2)s1 [Example 15]	< 0.1 µM
CC(=O)Nc1nc(C)c(-c2nc(Cc3cccc(CO)c3)no2)s1 [Example 36]	0.5 to 10 µM
CC(=O)Nc1nc(C)c(-c2nc(-c3cccnc3C)no2)s1 [Example 6]	< 0.1 µM
CC(=O)Nc1nc(C)c(-c2nc(C(C)NS(C)(=O)=O)no2)s1 (centres unmarked) [Example 81]	0.5 to 10 µM
CC(=O)Nc1nc(C)c(-c2nc(-c3ccc(=O)n(C)c3)no2)s1 [Example 39]	0.1 to 0.5 µM

SMILES	IC50
CCC(CC)(CO)Cc1noc(-c2sc(NC(C)=O)nc2C)n1 [Example 46]	< 0.1 µM
CC(=O)Nc1nc(C)c(-c2nc(C(C)(C)C)no2)s1 [Example 2, N-[5-(3-tert-butyl-1,2,4-oxadiazol-5-yl)-4-methyl-1,3-thiazol-2-yl]acetamide]	< 0.1 µM
CC(=O)Nc1nc(C)c(-c2nc(CC(C)(C)C)no2)s1 [Example 68]	< 0.1 µM
CC(=O)Nc1nc(C)c(-c2nc(CC3(C)COC3)no2)s1 [Example 41]	< 0.1 µM
CC(=O)Nc1nc(C)c(-c2nc(C3CCCC3)no2)s1 [Example 18]	< 0.1 µM
CC(=O)Nc1nc(C)c(-c2nc(C3CC3)no2)s1 [Example 83]	< 0.1 µM
CC(=O)Nc1nc(C)c(-c2nc(CC3(CO)COC3)no2)s1 [Example 57]	0.1 to 0.5 µM
C=Cc1noc(-c2sc(NC(C)=O)nc2C)n1 [Example 35]	0.1 to 0.5 µM
COC(=O)CCc1noc(-c2sc(NC(C)=O)nc2C)n1 [Example 71]	0.1 to 0.5 µM
CC(=O)Nc1nc(C)c(-c2nc(C3CCOCC3)no2)s1 [Example 54]	< 0.1 µM
COCC(C)(C)Cc1noc(-c2sc(NC(C)=O)nc2C)n1 [Example 51]	< 0.1 µM
CC(=O)Nc1nc(C)c(-c2nc(-c3ccc(CO)cc3)no2)s1 [Example 25]	< 0.1 µM
CC(=O)Nc1nc(C)c(-c2nc(-c3cnccn3)no2)s1 [Example 23]	< 0.1 µM
CC(=O)Nc1nc(C)c(-c2nc(CC(C)(C)C(C)=O)no2)s1 [Example 86]	< 0.1 µM
CC(=O)Nc1nc(C)c(-c2nc(-c3ccccc3)no2)s1 [Example 7]	< 0.1 µM
CC(=O)Nc1nc(C)c(-c2nc(C(N)=O)no2)s1 [Example 70]	0.1 to 0.5 µM
COCc1noc(-c2sc(NC(C)=O)nc2C)n1 [Example 50]	0.1 to 0.5 µM
CC(=O)Nc1nc(C)c(-c2nc(-c3cncc(O)c3)no2)s1 [Example 32]	< 0.1 µM
